US7094869B2, “Low molecular weight peptidomimetic growth hormone secretagogues” (Genentech, Inc., priority 1994, dated 2006)
Where two headings read alike, the source gives them in different places. Starred links: 1 amine or outer side, 2 acyl side, 3 side chain; linkers in the order of their positions; H or OH if unused. Non-standard residues stand in square brackets, D forms with d. Residues, ends and D or L forms follow the SMILES beside them. ξ: configuration not given here. *: point of attachment. dNMe2Nal = CN[C@H](Cc1ccc2ccccc2c1)C(=O)O; dPhe(4-Cl) = N[C@H](Cc1ccc(Cl)cc1)C(=O)O; d2Nal = N[C@H](Cc1ccc2ccccc2c1)C(=O)O; ξNMe2Nal = CNC(Cc1ccc2ccccc2c1)C(=O)O; Ethylenediamine = C(CN[*:2])N[*:1]; β3hAib = CC(C)(CC(=O)[*:2])N[*:1]; Morpholide = C1CN(*)CCO1; Inp = O=C(O)C1CCNCC1; ξK = NCCCCC(N)C(=O)O; NHtBu = CC(C)(C)N*; Ava = NCCCCC(=O)O; βAla = NCCC(=O)O

Key:
[1] = target: rat pituitary cells (Rattus norvegicus, UniProt O08725); conditions: read-out: PIT Cell EC50, GH release, 15 min incubation
Procedure, shortened: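 Primary rat anterior pituitary cells, cultured three days in DME low glucose/10% FBS, were washed, pre-incubated twice for 15 min, then challenged 15 min with test compounds (DMSO ≤0.1%) at 37 °C. Released GH was measured by two-site ELISA; EC50 came from 4-parameter fits, mean of three to four independent determinations.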

[2] = test system: growth hormone secretion; test: GHRP induced growth hormone secretion, intravenous administration (Rat IV); assay type: in vivo; conditions: iv injection, serum GH 10 min after injection
Experimental: Immature weanling female Sprague Dawley rats were purchased from Charles River Labs (Portage, […].) and group housed with water and food available ad libitum. When the rats were 24-30 days old (weighing 50-90 g) they were anesthetized with pentobarbitone (4 mg in 0.5 ml, approximately 60 mg/kg) given by intraperitoneal injection. The rats were then placed briefly on a heated pad, to distend their tail veins, and given an intravenous tail vein injection of the peptides 20 minutes after receiving the anesthetic. The intravenous injection was of 0.1 ml using a 1 ml syringe. The injections contained graded doses of peptides or the vehicle (vehicle for all peptides given intravenously was a buffer of 20 mM sodium acetate, 45 g/l mannitol, pH 5.0). Ten minutes after the intravenous injection blood was taken by cardiac puncture, using a 3 ml syringe, and the rats were then sacrificed.
The blood was then clotted on ice, centrifuged, serum decanted and frozen for subsequent analysis using the rat GH ELISA described elsewhere in the application. For the rat GH ELISA the serum was diluted 1:50 or 1:250, depending on the expected serum GH concentrations achieved, and assayed in duplicate.

[3] = Table III, formula IV compounds
[4] = Table VI, retroinverso compounds of formula V
[5] = Table IV, formula III compounds

Sequence of rat pituitary cells (O08725 whole entry): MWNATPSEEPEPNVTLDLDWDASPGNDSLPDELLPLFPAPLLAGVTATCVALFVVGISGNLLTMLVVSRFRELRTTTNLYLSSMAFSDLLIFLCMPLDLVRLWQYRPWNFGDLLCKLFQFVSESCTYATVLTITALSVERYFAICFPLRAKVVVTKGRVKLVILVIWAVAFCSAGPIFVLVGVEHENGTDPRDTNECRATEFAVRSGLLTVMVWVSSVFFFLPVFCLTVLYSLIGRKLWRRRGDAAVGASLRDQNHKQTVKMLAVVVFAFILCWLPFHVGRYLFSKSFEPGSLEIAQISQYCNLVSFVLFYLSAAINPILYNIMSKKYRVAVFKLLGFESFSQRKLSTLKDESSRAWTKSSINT

SMILES	EC50 [1, 3] [nM]	RAT IV ED50 ([2]; Table III) [µg]	also measured
NCCCCC(=O)N[C@H](Cc1c[nH]c2ccccc12)C(=O)N[C@H](Cc1c[nH]c2ccccc12)C(=O)N[C@@H](Cc1ccccc1)C(=O)N[C@@H](CCCCN)C(N)=O [(Ava) w w F K amide] (H-[Ava][dW][dW]FK-NH2)	13	5	–
NC[C@H](Cc1ccc2ccccc2c1)NC(=O)[C@@H](Cc1ccc2ccccc2c1)NC(=O)C1CCNCC1 [(inip) b Bmn]	–	–	EC50 ([1]; Table V, formula II compounds): 36 nM; RAT IV ED50 ([2]; Table V): 20 µg
NCCCNC(=O)[C@H](Cc1ccc2ccccc2c1)NC(=O)[C@H](Cc1ccc2ccccc2c1)NC(=O)[C@H](N)Cc1ccc2ccccc2c1 [b B B ram, DβNal-βNal-βNal-[N-(3-aminopropyl)] amide]	–	–	EC50 [1, 4]: 15.2 nM; RAT IV ED50 ([2]; Table VI): 100 µg
NC(=O)CCNC(=O)[C@H](Cc1ccccc1)NC(=O)[C@@H](Cc1ccc2ccccc2c1)NC(=O)[C@@H](Cc1ccc2ccccc2c1)NC(=O)C1CCNCC1 [(inip) b b F bA amide] (H-[Inp][d2Nal][d2Nal]F[βAla]-NH2)	0.2	2	–
CN(C(=O)CCCCN)C(Cc1ccc2ccccc2c1)C(=O)N[C@H](Cc1ccc2ccccc2c1)C(=O)N[C@@H](Cc1ccccc1)C(=O)NC(CCCCN)C(N)=O (stereo partly drawn) [(Ava) nmb b F K amide, (5-aminovaleryl)-(N-Me-DβNal)-DβNal-Phe-Lys-amide] (H-[Ava][ξNMe2Nal][d2Nal]F[ξK]-NH2)	1.8	0.4	–
COC(=O)[C@@H](Cc1ccc2ccccc2c1)NC(=O)[C@@H](Cc1ccc2ccccc2c1)NC(=O)C1CCNCC1 [(imp) b b Me ester] (H-[Inp]-[d2Nal]-[d2Nal]-OMe)	–	–	EC50 ([1]; Table V, formula II compounds): 5 nM; RAT IV ED50 ([2]; Table V): 100 µg
O=C(N[C@H](Cc1ccc2ccccc2c1)C(=O)NCCc1ccc2ccccc2c1)C1CCNCC1 [(inip) b npe, (inip)-DβNal-[N-1-{2-(2-naphthyl)ethyl}] amide]	–	–	EC50 ([1]; Table V, formula II compounds): 11 nM; RAT IV ED50 ([2]; Table V): 500 µg
O=C(N[C@H](Cc1ccc2ccccc2c1)C(=O)N[C@H](Cc1ccc2ccccc2c1)C(=O)N[C@@H](Cc1ccc(O)cc1)C(=O)O)C1CCNCC1 [(inip) b b Y acid] (H-[Inp][d2Nal][d2Nal]Y-OH)	–	–	EC50 [1, 5]: 5 nM; RAT IV ED50 ([2]; Table IV): 10 µg
NC(=O)[C@H](Cc1ccccc1)NC(=O)[C@@H](Cc1c[nH]c2ccccc12)NC(=O)[C@@H](Cc1c[nH]c2ccccc12)NC(=O)C1CCNCC1 [(inip) w w F amide] (H-[Inp][dW][dW]F-NH2)	–	–	EC50 [1, 5]: 0.9 nM; RAT IV ED50 ([2]; Table IV): 5 µg
NCCNC(=O)[C@@H](Cc1ccc2ccccc2c1)NC(=O)[C@@H](Cc1ccc2ccccc2c1)NC(=O)C1CCNCC1 [(inip) b b tam] (H-[Inp]-[d2Nal]-[d2Nal]-Ethylenediamine)	–	–	EC50 [1, 5]: 11 nM; RAT IV ED50 ([2]; Table IV): 20 µg
CC(C)(N)CC(=O)N[C@H](Cc1ccc2ccccc2c1)C(=O)N[C@H](Cc1ccc2ccccc2c1)C(=O)N[C@@H](Cc1ccccc1)C(=O)N[C@@H](CCCCN)C(N)=O [(nba) b b F K amide] (β3hAib-[d2Nal][d2Nal]FK-NH2)	2.8	100	–
C[C@@H](N)C(=O)N[C@H](Cc1ccc2ccccc2c1)C(=O)N[C@H](Cc1ccc2ccccc2c1)C(=O)N[C@@H](Cc1ccccc1)C(=O)N[C@@H](CCCCN)C(N)=O [a b b F K amide] (H-[dA][d2Nal][d2Nal]FK-NH2)	3.5	10	–
CN(C(=O)C1CCNCC1)[C@H](Cc1ccc2ccccc2c1)C(=O)N[C@H](Cc1ccc2ccccc2c1)C(=O)N[C@@H](Cc1ccccc1)C(N)=O [(inip) nmb b F amide] (H-[Inp][dNMe2Nal][d2Nal]F-NH2)	–	–	EC50 [1, 5]: 0.5 nM; RAT IV ED50 ([2]; Table IV): 5 µg
NCCCC[C@H](NC(=O)[C@H](Cc1ccccc1)NC(=O)[C@@H](Cc1c[nH]c2ccccc12)NC(=O)[C@@H](Cc1ccc2ccccc2c1)NC(=O)[C@@H](N)Cc1c[nH]cn1)C(N)=O [H b w F K amide] (H-H[d2Nal][dW]FK-NH2)	6.8	4.2	–
CN(C(=O)[C@@H](Cc1ccc2ccccc2c1)NC(=O)C1CCNCC1)[C@@H](CO)Cc1ccc2ccccc2c1 [(inip) b nbol, (inip)-DβNal-(N-Methyl-D-β-naphthylalanol)]	–	–	EC50 ([1]; Table V, formula II compounds): 3 nM; RAT IV ED50 ([2]; Table V): 20 µg
NC(=O)[C@H](Cc1ccccc1)NC(=O)[C@@H](Cc1ccc(Cl)cc1)NC(=O)[C@@H](Cc1ccc2ccccc2c1)NC(=O)C1CCNCC1 [(inip) b chf F amide] (H-[Inp][d2Nal][dPhe(4-Cl)]F-NH2)	–	–	EC50 [1, 5]: 2.7 nM; RAT IV ED50 ([2]; Table IV): 5 µg
O=C(N[C@H](Cc1c[nH]c2ccccc12)C(=O)N[C@@H](CO)Cc1c[nH]c2ccccc12)C1CCNCC1 [(inip) w wol]	–	–	EC50 ([1]; Table V, formula II compounds): 4 nM; RAT IV ED50 ([2]; Table V): 20 µg
NCCCC[C@H](NC(=O)[C@H](Cc1ccccc1)NC(=O)[C@@H](Cc1ccc2ccccc2c1)NC(=O)[C@@H](Cc1ccc2ccccc2c1)NC(=O)[C@@H](N)Cc1c[nH]cn1)C(N)=O [H b b F K amide] (H-H[d2Nal][d2Nal]FK-NH2)	2.4	15.4	–
NCCCC[C@H](NC(=O)[C@H](Cc1ccccc1)NC(=O)[C@@H](Cc1ccc2ccccc2c1)NC(=O)[C@@H](Cc1ccc2ccccc2c1)NC(=O)CN)C(N)=O [G b b F K amide] (H-G[d2Nal][d2Nal]FK-NH2)	14.9	100	–
CC(C)(C)NC(=O)[C@H](Cc1ccccc1)NC(=O)[C@@H](Cc1ccc2ccccc2c1)NC(=O)[C@@H](Cc1ccc2ccccc2c1)NC(=O)C1CCNCC1 [(inip) b b F tbm] (H-[Inp][d2Nal][d2Nal]F-NHtBu)	10	10	–
O=C(N[C@H](Cc1ccc2ccccc2c1)C(=O)N[C@H](Cc1ccc2ccccc2c1)C(=O)N[C@@H](Cc1ccccc1)C(=O)O)C1CCNCC1 [(inip) b b F acid, (inip)-DβNal-DβNal-Phe] (H-[Inp][d2Nal][d2Nal]F-OH)	–	–	EC50 [1, 5]: 0.2 nM; RAT IV ED50 ([2]; Table IV): 2 µg
NCCCCC(=O)N[C@H](Cc1ccc2ccccc2c1)C(=O)N[C@H](Cc1c[nH]c2ccccc12)C(=O)N[C@@H](Cc1ccccc1)C(=O)N[C@@H](CCCCN)C(N)=O [(Ava) b w F K amide] (H-[Ava][d2Nal][dW]FK-NH2)	4.6	11.8	–
CN(C(=O)C1CCNCC1)[C@H](Cc1ccc2ccccc2c1)C(=O)N[C@H](Cc1ccc2ccccc2c1)C(=O)N[C@@H](Cc1ccccc1)C(=O)N1CCOCC1 [(inip) nmb b F mor] (H-[Inp][dNMe2Nal][d2Nal]F-Morpholide)	0.8	10	–
CC(=O)N[C@H](Cc1ccc2ccccc2c1)C(=O)N[C@@H](Cc1ccc2ccccc2c1)C(=O)N[C@@H](Cc1ccc2ccccc2c1)C(=O)NCCCN [Ac b B B ram, Acetyl-DβNal-βNal-βNal-[N-(3-aminopropyl)] amide]	–	–	EC50 [1, 4]: 4.8 nM; RAT IV ED50 ([2]; Table VI): 100 µg
NCCCC[C@H](NC(=O)[C@H](Cc1ccccc1)NC(=O)[C@@H](Cc1c[nH]c2ccccc12)NC(=O)[C@@H](Cc1c[nH]c2ccccc12)NC(=O)[C@@H](N)Cc1c[nH]cn1)C(N)=O [H w w F K amide] (H-H[dW][dW]FK-NH2)	25.8	50	–
NCCCC[C@H](NC(=O)[C@H](Cc1ccccc1)NC(=O)[C@@H](Cc1ccc2ccccc2c1)NC(=O)[C@@H](Cc1ccc2ccccc2c1)NC(=O)C1CCNCC1)C(=O)N[C@@H](Cc1ccc(O)cc1)C(N)=O [(inip) b b F K Y amide] (H-[Inp][d2Nal][d2Nal]FKY-NH2)	0.43	1	–
NCCCCC(=O)N[C@H](Cc1ccc2ccccc2c1)C(=O)N[C@H](Cc1ccc2ccccc2c1)C(=O)N[C@@H](Cc1ccccc1)C(=O)NCC(N)=O [(Ava) b b F G amide] (H-[Ava][d2Nal][d2Nal]FG-NH2)	7.2	50	–
NCCCNC(=O)[C@H](Cc1ccc2ccccc2c1)NC(=O)[C@@H](Cc1ccc2ccccc2c1)NC(=O)[C@@H](Cc1ccc2ccccc2c1)NC(=O)CCCN [(Ab) b b B ram, (4-Aminobutanoyl)-DβNal-DβNal-βNal-[N-(3-aminopropyl)] Amide]	2.4	10	–
